Results taken from US20100210649A1, “PYRIDAZINONES AND FURAN-CONTAINING COMPOUNDS” (Sloan-Kettering Institute for Cancer Research, priority 2006, published 2010).

Legend:
[1] = tested on: p70 S6 kinase; assay: Phosphoprotein array, p70 S6 kinase; assay type: cell-based; settings: cells treated for 24 hours; PI-3kinase signaling pathway
Experimental: (§1) FIG. 43A-43C. A phosphoprotein array was used to determine which signaling pathways were affected by treatment of cells with SKI-267077. […] A phosphoprotein array (R and D Systems) was used to measure the level of phosphorylation of cellular proteins. Protein phosphorylation was determined according to the manufacturer's instructions.

[2] = tested on: AKT isoforms; assay: Phosphoprotein array, AKT; assay type: cell-based; settings: cells treated for 24 hours; PI-3kinase signaling pathway
Experimental: as §1

[3] = tested on: cells; assay: Annexin V binding (FACS) apoptosis assay; assay type: cell-based; settings: 48 hours, FITC-labeled annexin V
Experimental: FIG. 42. SKI-267077 induces apoptosis. Cells were treated for 48 hours with SKI-267077 and then binding of FITC-labeled annexin V to cells determined FACS analysis was used to determine the amount of annexin V-positive cells.

[4] = tested on: caspase 3/7; assay: Caspase 3/7 enzyme activity assay in cell extracts; assay type: cell-based, human; settings: H2030 cells, 1 μM, 48 h, whole cell extracts
Experimental: FIG. 3. Activation of caspase 3/7 by SKI-267077. H2030 cells were treated with 1 μM SKI-267077 for 48 h and then caspase 3/7 activity measured in whole cell extracts.
Caspase 3/7 enzyme activity assay. Apoptosis was determined by measuring the enzymatic activity of caspase 3/7 in cell homogenates. Cells were plated at a density of 10,000 cells per well in 96-well plates and treated immediately with drugs for 24-72 h. Caspase 3/7 activity will be determined in cell extracts using Z-DEVD-R110 (rhodamine 110 conjugated to the caspase substrate Z-DEVD) as substrate (Promega). The fluorescence of the cleaved substrate was measured using a micro-titer fluorescence plate reader (Ex: 499 nm, Em: 521 nm).
SKI-267077 stimulates the enzymatic activity of caspase 3/7.

[5] = tested on: H1975; assay: [3H]-thymidine incorporation assay, H1975; assay type: cell-based, human; settings: H1975, mutant EGFR
Experimental: (§2) FIGS. 41A-41B. SKI-267077 inhibits DNA synthesis. SKI-267077 was used to elucidate the mechanism by which this agent inhibits cell growth.
(§3) [^3H]-thymidine incorporation assay. Cells were seeded in 12-well plates at a density of 100 000 cells/well and treated with inhibitors for 24 hours. H3-thymidine (3 μCi/mL) was then added for 3 hours. Cells were washed twice with PBS, fixed with cold 10% TCA (in PBS) for 30 min then lysed with 0.5% NaOH/0.5% SDS. DNA was scraped from the wells and the amount of H3-thymidine incorporated determined by liquid scintillation counting.

[6] = tested on: H3255; assay: [3H]-thymidine incorporation assay, H3255; assay type: cell-based, human; settings: H3255, mutant EGFR
Experimental: as §2, §3

[7] = tested on: H2030 cells; assay: [3H]-thymidine incorporation assay, H2030; assay type: cell-based, human; settings: increasing concentrations, 24 hours
Experimental: FIG. 1. SKI-267077 blocks DNA synthesis. H2030 cells were treated with the indicated concentration of SKI-267077 for 24 h and then the incorporation of ^3H-thymidine into DNA was determined
as §3
SKI-267077 inhibits DNA synthesis. […] H2030 cells were treated with increasing concentrations of SKI-267077 for 24 hours and then incorporation of ^3H-thymide into DNA determined (FIG. 1).

[8] = tested on: H2030 cells; assay: Cell cycle analysis (FACS), H2030; assay type: cell-based, human; settings: 24 hours
Experimental: FIGS. 2A-2B. SKI-267077 induces cell cycle arrest. H2030 cells were treated with SKI-267077 for 24 h. Cell cycle progression was analyzed by FACS analysis. FIG. 2A: Percent of cells in S-phase. FIG. 2B: percent of cells in G1 phase.
Cell cycle analysis. For cell cycle analysis, cells were plated at a density of 500,000 cells per well in 6-well plates. Attached cells were treated with drugs for 24 h. Cells were then collected, washed with PBS and fixed in 70% ethanol for 1 h. For FACS analysis, fixed cells were washed with cold PBS resuspended in PBS containing 200 μg/mL propidium iodide and 0.1% sodium citrate. Flow cytometry was performed on a Becton-Dickinson FACSCalibur flow cytometer and data the processed using FlowJo software.
SKI-267077 induces cell cycle arrest at the G1 phase. Cell cycle progression in the presence of SKI-267077 was determined by FACS analysis of H2030 cells that were treated for 24 hours.

[9] = tested on: MAPK isoforms ERK1 and ERK2; assay: Phosphoprotein array, ERK1 and ERK2; assay type: cell-based; settings: cells treated for 24 hours; MAPK signaling pathway
Experimental: as §1

phosphorylation of p70 S6 kinase [1]: blocked phosphorylation
SMILES: O=c1c(Cl)c(Cl)cnn1-c1ccc(Cl)cc1Cl [compound 267077]
phosphorylation of AKT isoforms [2]: blocked phosphorylation of all three AKT isoforms
apoptosis, binding of annexin-V to the cell surface [3]: induction of apoptosis
activity of caspase 3/7 [4]: increase in the activity of caspase 3/7
DNA synthesis [5]: dose-dependent reduction in DNA synthesis
DNA synthesis [6]: dose-dependent reduction in DNA synthesis
incorporation of 3H-thymidine into DNA (DNA synthesis) [7]: dose-dependent decrease in DNA synthesis
percent of cells in the G1 phase [8]: increase in the percent of cells in the induce G1 phase
percent of cells in the S phase [8]: reduction of the percent of cells in the S phase
phosphorylation of ERK1 and ERK2 [9]: reduced phosphorylation of the MAPK isoforms ERK1 and ERK2
